Patent US20220054541A1, “METHOD FOR TREATING INFLAMMATORY BOWEL DISEASES” (NovMetaPharma Co., Ltd., priority 2020, published 2022)
Entries after “also recorded” stand apart in the source; their conditions may differ.

Key:
[1] = system: DSS-induced colitis model mice; experiment: DSS-induced colitis model mice (body weight, disease score, survival, colon length, histology); type: in vivo, Male C57BL/6J Jms Slc mice
Experimental: Male C57BL/6J Jms Slc mice (8-week old) were fed with 4% dextran sulfate sodium (DSS) in water in place of drinking water for 9 days, followed by feeding drinking water for 3 days, inducing colitis in the mice. Mice were divided into three groups: (1) CRP40 group administered orally with CHP monohydrate (40 mg/kg body weight/day); (2) CycloZ40 group administered orally with a combination of CHP monohydrate 40 mg/kg+Zn gluconate 70 mg/kg; and (3) vehicle (control) group fed with drinking water. CHP hydrate and combination of CHP hydrate+Zn gluconate were administered to the animals starting from 3 days prior to the DSS administration and continued for 12 days until the animals were sacrificed. The above amount of the CHP monohydrate and the combination of CHP monohydrate and Zn gluconate were administered daily.
At day 12, the animals were sacrificed and their colon lengths were measured.
The intestinal tissues were fixed, paraffin-embedded, and stained with hematoxylin and eosin.
Histopathological evaluation of colon was scored according to the grading system listed below.

[2] = system: muscle tissues and intestinal segments; conditions: cited from earlier work
[3] = pKa of CHP hydrate material; type: physicochemical

Compound | protection of intestine ([1]; CHP alone 40 mg/kg/day as monohydrate compared with combination of CHP 40 mg/kg/day and Zn 70 mg/kg as zinc gluconate) | zinc absorption and uptake [2] | pKa [3] | histological scores ([1]; DSS-induced colitis mice, compared with control (vehicle) group) | histological examination of intestinal tissue (H&E) ([1]; DSS-induced colitis mice, epithelial lining, submucosa thickness, lymphatic infiltration, compared with vehicle group) | survival rate ([1]; DSS-induced colitis mice, experimental period of 14 days, CHP monohydrate 40 mg/kg/day, or plus Zn gluconate 70 mg/kg, about 70% of vehicle group died) | weight loss (body weight changes) ([1]; DSS-induced colitis mice, oral daily CHP monohydrate 40 mg/kg/day, day 12, compared with CycloZ40 and vehicle groups) | disease score (disease activity: weight loss, stool consistency, blood) ([1]; DSS-induced colitis mice, oral daily CHP monohydrate 40 mg/kg/day, day 12, compared with CycloZ40 and vehicle groups, monohydrate) | colon length ([1]; DSS-induced colitis mice, sacrificed at day 12, compared with vehicle and CycloZ40 groups)
O=C1N[C@@H](Cc2cnc[nH]2)C(=O)N2CCC[C@@H]12 [CHP, Cyclo(-His-Pro)] | greater protection of intestine | enhanced zinc absorption and uptake |  |  |  |  |  |  | 
O=C1N[C@@H](Cc2cnc[nH]2)C(=O)N2CCC[C@@H]12 [CRP40, CHP monohydrate] |  |  | ~6.4 | histologically more resistant to intestinal inflammation | protected from intestinal tissue damage | survived until the end of the experiment | the least | greatly improved; also recorded: the lowest | longest
